Assay results from PubChem BioAssay AID256 (DTP/NCI, 2004).
Where “and” joins values, the source holds several entries; their conditions need not be identical. Equal entries are not always repeated. Inconclusive results and toxic doses are left out. How the source made its calls: active means survival T/C of 150% or more; inactive means T/C below 125% in these data.

Tested on: CD2F1 mice, L1210 leukemia ip, survival T/C
Assay: NCI In Vivo Anticancer Drug Screen. Data for tumor model L1210 Leukemia (intraperitoneal) in CD2F1 (CDF1) mice
Settings: higher = longer survival
Summary of the method: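 Ratio T/C, where T is the treated-group value and C the vehicle-dosed control value, from mice implanted with a transplantable tumor.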

[1] = endpoint: mean survival time, dose: 50.0 mg/kg/injection, schedule: Q01DX009 (ip), vehicle: saline with Tween-80
[2] = endpoint: mean survival time, dose: 100.0 mg/kg/injection, schedule: Q01DX001 (ip), vehicle: saline with Tween-80
[3] = endpoint: mean survival time, dose: 100.0 mg/kg/injection, schedule: Q01DX009 (ip), vehicle: saline with Tween-80
[4] = endpoint: mean survival time, dose: 200.0 mg/kg/injection, schedule: Q01DX001 (ip), vehicle: saline with Tween-80
[5] = endpoint: mean survival time, dose: 200.0 mg/kg/injection, schedule: Q01DX009 (ip), vehicle: saline with Tween-80
[6] = endpoint: mean survival time, dose: 100.0 mg/kg/injection, schedule: Q01DX001 (ip), vehicle: saline
[7] = endpoint: mean survival time, dose: 200.0 mg/kg/injection, schedule: Q01DX001 (ip), vehicle: saline
[8] = endpoint: mean survival time, dose: 400.0 mg/kg/injection, schedule: Q01DX001 (ip), vehicle: saline
[9] = endpoint: mean survival time, dose: 100.0 mg/kg/injection, schedule: Q04DX003 (ip), vehicle: saline with Tween-80
[10] = endpoint: mean survival time, dose: 200.0 mg/kg/injection, schedule: Q04DX003 (ip), vehicle: saline with Tween-80
[11] = endpoint: mean survival time, dose: 400.0 mg/kg/injection, schedule: Q04DX003 (ip), vehicle: saline with Tween-80
[12] = endpoint: mean survival time, dose: 400.0 mg/kg/injection, schedule: Q01DX009 (ip), vehicle: saline with Tween-80
[13] = endpoint: mean survival time, dose: 12.5 mg/kg/injection, schedule: Q01DX009 (ip), vehicle: saline with Tween-80
[14] = endpoint: mean survival time, dose: 25.0 mg/kg/injection, schedule: Q01DX009 (ip), vehicle: saline with Tween-80
[15] = endpoint: mean survival time, dose: 50.0 mg/kg/injection, schedule: Q04DX002 (ip), vehicle: saline with Tween-80

Measured: T/C

O=C(NC/C=C/Br)Nc1cccc2c1CCCC2
inactive: [1] 94 % of control | [2] 89 % of control | [3] 99 % of control | [4] 86 % of control | [5] 88 % of control

Cc1ccc(P(=S)(c2ccccc2)c2ccccc2)c2ccccc12
inactive: [6] 104 % of control | [7] 101 % of control | [8] 95 % of control

CC1(CCO)NC(=O)NC1=O (stereo unspecified)
inactive: endpoint: mean survival time, dose: 100.0 mg/kg/injection, schedule: Q01DX009 (ip), vehicle: saline sonified 97 % of control | endpoint: mean survival time, dose: 100.0 mg/kg/injection, schedule: Q04DX003 (ip), vehicle: saline 100 % of control | endpoint: mean survival time, dose: 200.0 mg/kg/injection, schedule: Q01DX009 (ip), vehicle: saline sonified 97 % of control | endpoint: mean survival time, dose: 200.0 mg/kg/injection, schedule: Q04DX003 (ip), vehicle: saline 96 % of control | endpoint: mean survival time, dose: 400.0 mg/kg/injection, schedule: Q01DX009 (ip), vehicle: saline sonified 97 % of control | endpoint: mean survival time, dose: 400.0 mg/kg/injection, schedule: Q04DX003 (ip), vehicle: saline 100 % of control

O=C(O)/C=C/C(=O)NC1CCCCC1
inactive: [9] 97 % of control and 101 % of control | [10] 101 % of control and 97 % of control | [11] 98 % of control and 95 % of control

O=C(CN1CC1)NCCCCCCCCNC(=O)CN1CC1
inactive: endpoint: mean survival time, dose: 4.4 mg/kg/injection, schedule: Q01DX009 (ip), vehicle: carboxymethylcellulose (CMC) 116 % of control | endpoint: mean survival time, dose: 6.6 mg/kg/injection, schedule: Q01DX009 (ip), vehicle: carboxymethylcellulose (CMC) 122 % of control | endpoint: mean survival time, dose: 22.0 mg/kg/injection, schedule: Q01DX001 (ip), vehicle: carboxymethylcellulose (CMC) 120 % of control | endpoint: mean survival time, dose: 33.0 mg/kg/injection, schedule: Q01DX001 (ip), vehicle: carboxymethylcellulose (CMC) 123 % of control

CCC[N+](CCC)(CCC)CCC.N#CC(C#N)=C([SH2+])[SH2+].N#CC(C#N)=C([SH2+])[SH2+].N#CC(C#N)=C([SH2+])[SH2+].[Fe+3]
inactive: endpoint: mean survival time, dose: 25.0 mg/kg/injection, schedule: Q04DX003 (ip), vehicle: acetone 103 % of control | endpoint: mean survival time, dose: 50.0 mg/kg/injection, schedule: Q04DX003 (ip), vehicle: acetone 97 % of control

O=C(O)c1ccccc1S(=O)(=O)c1ccccc1
inactive: [9] 93 % of control | [10] 88 % of control | [11] 95 % of control

Nc1ccc2c(Cl)cc(Cl)cc2c1
inactive: [1] 102 % of control | [3] 103 % of control | [9] 98 % of control | [5] 96 % of control | [10] 91 % of control

CC=C(CCCC)CCCC
inactive: [6] 107 % of control | [7] 102 % of control | [8] 103 % of control

COC(=O)C1(C)CCCC2(C)C1CCC13OC1C1(C(C)C)OC1CC23 (stereo unspecified)
inactive: [3] 98 % of control | [5] 104 % of control | [12] 98 % of control

COC1=C(C)C(=O)c2c(c(COC(N)=O)c3n2CC2C3N2C)C1=O (stereo unspecified)
inactive: endpoint: mean survival time, dose: 2.25 mg/kg/injection, schedule: Q01DX001 (ip), vehicle: acetone 103 % of control | endpoint: mean survival time, dose: 2.9 mg/kg/injection, schedule: Q01DX001 (ip), vehicle: acetone 102 % of control | endpoint: mean survival time, dose: 4.5 mg/kg/injection, schedule: Q01DX001 (ip), vehicle: acetone 110 % of control | endpoint: mean survival time, dose: 6.75 mg/kg/injection, schedule: Q01DX001 (ip), vehicle: acetone 118 % of control | endpoint: mean survival time, dose: 6.75 mg/kg/injection, schedule: Q01DX001 (ip), vehicle: saline 112 % of control

Cc1ccc(C(=O)OCCN2CCN(c3ccccc3)CC2)c([N+](=O)[O-])c1OCc1ccccc1
inactive: endpoint: mean survival time, dose: 100.0 mg/kg/injection, schedule: Q04DX002 (ip), vehicle: other 98 % of control | endpoint: mean survival time, dose: 200.0 mg/kg/injection, schedule: Q04DX002 (ip), vehicle: other 91 % of control | endpoint: mean survival time, dose: 400.0 mg/kg/injection, schedule: Q04DX002 (ip), vehicle: other 91 % of control

CSC(=S)N/N=C/c1ccccc1O
inactive: [13] 95 % of control | endpoint: mean survival time, dose: 12.5 mg/kg/injection, schedule: Q04DX003 (ip), vehicle: saline with Tween-80 100 % of control | [14] 87 % of control | endpoint: mean survival time, dose: 25.0 mg/kg/injection, schedule: Q04DX003 (ip), vehicle: saline with Tween-80 97 % of control | endpoint: mean survival time, dose: 50.0 mg/kg/injection, schedule: Q04DX003 (ip), vehicle: saline with Tween-80 95 % of control

COC(=O)c1cc(C2OC3OC(C)(C)OC3C2OCc2ccccc2)nn1-c1ccc([N+](=O)[O-])cc1 (stereo unspecified)
inactive: endpoint: median survival time, dose: 11.5 mg/kg/injection, schedule: Q01DX005 (ip), vehicle: other 101 % of control | endpoint: median survival time, dose: 23.0 mg/kg/injection, schedule: Q01DX005 (ip), vehicle: other 100 % of control | endpoint: median survival time, dose: 46.0 mg/kg/injection, schedule: Q01DX005 (ip), vehicle: other 100 % of control | endpoint: median survival time, dose: 92.0 mg/kg/injection, schedule: Q01DX005 (ip), vehicle: other 100 % of control

O=C(O)C1CC(n2cnc3c(=O)[nH]cnc32)CN1 (stereo unspecified)
inactive: [15] 96 % of control | endpoint: mean survival time, dose: 100.0 mg/kg/injection, schedule: Q04DX002 (ip), vehicle: saline with Tween-80 110 % of control | endpoint: mean survival time, dose: 200.0 mg/kg/injection, schedule: Q04DX002 (ip), vehicle: saline with Tween-80 93 % of control | endpoint: mean survival time, dose: 400.0 mg/kg/injection, schedule: Q04DX002 (ip), vehicle: saline with Tween-80 93 % of control

CCOS(=O)(=O)c1ccc(Cl)c([N+](=O)[O-])c1
inactive: [13] 100 % of control | [14] 105 % of control | [1] 94 % of control and 100 % of control | [9] 103 % of control

C=C1C(=O)O[C@@H]2C[C@@]3(C)CC(=O)C=C(C)[C@@H]3C[C@H]12
inactive: [2] 101 % of control | [3] 98 % of control | [4] 97 % of control | [5] 98 % of control | endpoint: mean survival time, dose: 400.0 mg/kg/injection, schedule: Q01DX001 (ip), vehicle: saline with Tween-80 101 % of control | [12] 104 % of control

CN1CCC(CN2c3ccccc3Sc3ccccc32)C1 (stereo unspecified)
inactive: [13] 107 % of control | [14] 102 % of control | [1] 123 % of control

OCc1cn2c(c1CO)CCC2
inactive: endpoint: mean survival time, dose: 12.5 mg/kg/injection, schedule: Q01DX009 (ip), vehicle: water 105 % of control | endpoint: mean survival time, dose: 22.0 mg/kg/injection, schedule: Q01DX009 (ip), vehicle: other 108 % of control | endpoint: mean survival time, dose: 25.0 mg/kg/injection, schedule: Q01DX009 (ip), vehicle: water 113 % of control | endpoint: mean survival time, dose: 33.0 mg/kg/injection, schedule: Q01DX009 (ip), vehicle: other 113 % of control | endpoint: mean survival time, dose: 50.0 mg/kg/injection, schedule: Q01DX009 (ip), vehicle: other 123 % of control | endpoint: mean survival time, dose: 75.0 mg/kg/injection, schedule: Q01DX009 (ip), vehicle: other 105 % of control

CCCCCCCCCCCCCCCCCC(CCCCCCCC)CCCCCCCC
inactive: [6] 96 % of control | [7] 94 % of control | [8] 91 % of control

Clc1c(Cl)c(Cl)c(C(c2c(Cl)c(Cl)c(Cl)c(Cl)c2Cl)c2c(Cl)c(Cl)c(Cl)c(Cl)c2Cl)c(Cl)c1Cl
inactive: [9] 98 % of control | [10] 98 % of control | [11] 110 % of control

COCC(=O)C(C(C)=O)C(c1ccccn1)C(C(C)=O)C(=O)COC (stereo unspecified)
inactive: endpoint: mean survival time, dose: 12.5 mg/kg/injection, schedule: Q04DX002 (ip), vehicle: saline with Tween-80 96 % of control | endpoint: mean survival time, dose: 25.0 mg/kg/injection, schedule: Q04DX002 (ip), vehicle: saline with Tween-80 96 % of control | [15] 104 % of control
